Results on one compound are retold here after PMC13081163, “Discovery of a novel Nrf2 activator that modulates mitochondrial function in neurons by regulating DHRS3-Nrf2 interaction after ischemic stroke” (Theranostics, 2026).

The target in series [1] is T1, Keap1 BTB domain (48-180) (Homo sapiens, UniProt Q14145).
T1 construct: truncated form of Keap1 (residues 48-180 and residues 48-149)
Put plainly: SPR binding to truncated Keap1 (48-180). Conditions: read-out: KD, Keap1 BTB domain fragment. The protocol: The binding affinity of Cpd.51 or Oma to Keap1 proteins were measured using a Biacore T200. The overall experimental procedures were based on previous reports, [28]. Human recombinant Keap1 proteins or truncated form of Keap1 (residues 48-180 and residues 48-149) were captured on a CM5 chip by a standard amine coupling procedure. Binding sensorgrams were recorded by injecting various concentrations of Cpd.51 over the immobilized proteins surface. The dissociation constant was obtained by globally fitting the data (to the 1:1 Langmuir binding model using the Biacore Insight evaluation software (Cytiva, Marlborough, MA, USA). Affinity tests for Cpd.51 and DHRS3 were also performed using the aforementioned method.

Series [2] concerns ARE-luciferase reporter (Nrf2 activation), Hek-293T cells. Put plainly: ARE-luciferase reporter gene assay. It counts as cell-based. Conditions: Homo sapiens. As to the method:
The Hek-293T cells were cultured in 96-well plates 24 h before transfection with ARE-luciferase reporter plasmid (11548ES03, Yeasen, China) for 48 h according to the manufacturer's instructions. The Firefly luciferase activities was carried out 12 h after the drug treatment, as described by the manufacturer (11412ES81, Yeasen, China).

Series [3] in a line: Microsomal metabolic stability, rat. It counts as in vitro ADME. To be noted: rat liver microsomes. As to the method: The liver microsomal incubation system comprised human, dog, or rat liver microsomal protein (0.75 mg/mL), nicotinamide adenine dinucleotide phosphate (NADPH) generation system, potassium phosphate buffer (0.1 M, pH 7.4), substrate, and inhibitor. The assay was conducted by first preparing a potassium phosphate buffer. Compounds and liver microsomes were then diluted and pre-incubated at 37 °C before initiating the reaction with NADPH. Aliquots were quenched with acetonitrile containing internal standard at specified time points. After sample processing (shaking and centrifugation), the supernatants were analyzed by LC-MS/MS to determine metabolic stability.

Series [4] can be described thus: 28-day long-term toxicity in rats (intragastric). It counts as in vivo, rat. Conditions: 28 days intragastric; Oma 10 mg/kg, Cpd.51 1, 3 and 10 mg/kg. As to the method: During the long-term toxicity test, rats in each group received daily intragastric administration for 28 consecutive days. Animals in the Sham group were administered a mixture of 99% sesame oil and 1% DMSO at a volume of 0.5 mL per rat. Rats in the remaining groups were intragastrically administered varying doses of the respective therapeutic agents.
During the 28-day long-term toxicity study, rats were euthanized following the completion of continuous intragastric administration. Livers and kidneys from both male and female rats in each group were photographed for macroscopic examination, and serum samples were collected for subsequent kit-based analysis. The liver/kidney index was obtained by dividing the weight of the liver/kidney by the body weight.

Series [5] can be described thus: Plasma and brain levels after i.v. dosing (blood-brain barrier). To be noted: for concentration at 0.25 h / concentration at 1 h / concentration at 4 h: intravenous, i.v. Format: in vivo, rat. As to the method:
Male SD rats were intravenous injection with Cpd.51, blood and brain tissues were collected 15 min, 1 h, 4 h, 6 h, 8 h and 24 h after drug administration. Samples were measured by a Shimadzu chromatography system (Shimadzu, Kyoto, Japan) coupled with an AB Sciex triple quadrupole 4500 mass spectrometer (SCIEX Triple Quad™ 4500 LC-MS/MS, Applied Biosystems Sciex, Ontario, Canada) using Analyst 1.4.2 software. A HPLC column (ACQUITY UPLC BEH C18, 2.1 × 50 mm, 1.7 μm) were used. Protein precipitation method was used for detection: 50 μL plasma sample or brain homogenate sample were added with 200 μL acetonitrile containing internal standard for precipitation, then vortexed for 3 min. The supernatant was injected into system for analysis after centrifugation.

Like-named read-outs stand apart in the source and are kept apart here.

T1 sequence (Q14145 48-180): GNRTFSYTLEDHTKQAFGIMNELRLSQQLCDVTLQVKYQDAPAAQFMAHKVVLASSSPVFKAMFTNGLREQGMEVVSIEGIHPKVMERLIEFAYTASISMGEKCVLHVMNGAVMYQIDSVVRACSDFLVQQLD

On to `CC1(C)CCC2(C(=O)NO)CCC3(C)C(C(=O)C=C4C5(C)C=C(C#N)C(=O)C(C)(C)C5CCC43C)C2C1` (stereo not drawn) [Cpd.51], for which the Kd in series [1] came out at 31300 nM. The EC50 in series [2] (HEK-293T, cells transfected with NC-OE control plasmid) stood at 56.7 nM; in series [2] (Hek-293T cells, 12 h after drug treatment) it was 48.1 nM. For the same compound, in series [3], the “Remainig (%, t = 60 min)” value is reported as 51.1%. For the same compound, the CLint scaled in series [3] (rat, pH 7.4) came out at 41 mL/min/kg. In series [3] (rat, pH 7.4), this compound gave a half-life of 1.01 h. Further, the body weight entry in series [4] was “neither compound significantly affected body weight”. In addition, in series [4], the “plasma markers of hepatic and renal injury” value is “showed no such effects at any dose tested”. In series [5] (intravenous administration), the “distribution to brain tissue” value is reported as “relatively effective distribution to brain tissue”. Besides, the concentration at 0.25 h in series [5] (male, SD, rat, brain, 5 mg/kg, 0.25 h, read-out: Brain) is 86.7 ± 49.3 ng/g; in series [5] (male, SD, rat, plasma, 5 mg/kg, 0.25 h, read-out: Plasma), 1290 ± 68 ng/mL. Also, the concentration at 1 h is 29.5 ± 17.5 ng/g in series [5] (male, SD, rat, brain, 5 mg/kg, 1 h, read-out: Brain) and 198 ± 44 ng/mL in series [5] (male, SD, rat, plasma, 5 mg/kg, 1 h, read-out: Plasma). Also, the concentration at 4 h was determined as 10.3 ± 4 ng/g in series [5] (male, SD, rat, brain, 5 mg/kg, 4 h, read-out: Brain) and 39.5 ± 10.4 ng/mL in series [5] (male, SD, rat, plasma, 5 mg/kg, 4 h, read-out: Plasma). In series [5] (male, SD, rat, brain, iv, 5 mg/kg, 0.25 h), this compound had a Kp at 0.25 h of 0.07 ± 0.04. Moreover, the Kp at 1 h in series [5] (male, SD, rat, brain, iv, 5 mg/kg, 1 h) stood at 0.16 ± 0.12. For the same compound, the Kp at 4 h in series [5] (male, SD, rat, brain, iv, 5 mg/kg, 4 h) amounted to 0.28 ± 0.14.
